{"source": "paper PMC3264577", "about": "“RINL, Guanine Nucleotide Exchange Factor Rab5-Subfamily, Is Involved in the EphA8-Degradation Pathway with Odin” (PLoS ONE, 2012)", "molecules": {"B1": {"name": "FLAG-RIN3 (natural protein, UniProt Q8TB24 1-985, looked up)", "chain": "MIRHAGAPARGDPTGPVPVVGKGEEEEEEDGMRLCLPANPKNCLPHRRGISILEKLIKTCPVWLQLSLGQAEVARILHRVVAGMFLVRRDSSSKQLVLCVHFPSLNESSAEVLEYTIKEEKSILYLEGSALVFEDIFRLIAFYCVSRDLLPFTLRLPQAILEASSFTDLETIANLGLGFWDSSLNPPQERGKPAEPPRDRAPGFPLVSSLRPTAHDANCACEIELSVGNDRLWFVNPIFIEDCSSALPTDQPPLGNCPARPLPPTSDATSPTSRWAPRRPPPPPPVLPLQPCSPAQPPVLPALAPAPACPLPTSPPVPAPHVTPHAPGPPDHPNQPPMMTCERLPCPTAGLGPLREEAMKPGAASSPLQQVPAPPLPAKKNLPTAPPRRRVSERVSLEDQSPGMAAEGDQLSLPPQGTSDGPEDTPRESTEQGQDTEVKASDPHSMPELPRTAKQPPVPPPRKKRISRQLASTLPAPLENAELCTQAMALETPTPGPPREGQSPASQAGTQHPPAQATAHSQSSPEFKGSLASLSDSLGVSVMATDQDSYSTSSTEEELEQFSSPSVKKKPSMILGKARHRLSFASFSSMFHAFLSNNRKLYKKVVELAQDKGSYFGSLVQDYKVYSLEMMARQTSSTEMLQEIRTMMTQLKSYLLQSTELKALVDPALHSEEELEAIVESALYKCVLKPLKEAINSCLHQIHSKDGSLQQLKENQLVILATTTTDLGVTTSVPEVPMMEKILQKFTSMHKAYSPEKKISILLKTCKLIYDSMALGNPGKPYGADDFLPVLMYVLARSNLTEMLLNVEYMMELMDPALQLGEGSYYLTTTYGALEHIKSYDKITVTRQLSVEVQDSIHRWERRRTLNKARASRSSVQDFICVSYLEPEQQARTLASRADTQAQALCAQCAEKFAVERPQAHRLFVLVDGRCFQLADDALPHCIKGYLLRSEPKRDFHFVYRPLDGGGGGGGGSPPCLVVREPNFL", "notes": "this molecule is used for it; source: HEK293T, transfected, in lysate"}}, "key": {"[1]": {"biological_target": "T1, Rab11a (Homo sapiens, UniProt P62491)", "T1 construct": "myc-tagged, expressed in HEK293T, immunoprecipitated", "T1 sequence (P62491 2-213)": "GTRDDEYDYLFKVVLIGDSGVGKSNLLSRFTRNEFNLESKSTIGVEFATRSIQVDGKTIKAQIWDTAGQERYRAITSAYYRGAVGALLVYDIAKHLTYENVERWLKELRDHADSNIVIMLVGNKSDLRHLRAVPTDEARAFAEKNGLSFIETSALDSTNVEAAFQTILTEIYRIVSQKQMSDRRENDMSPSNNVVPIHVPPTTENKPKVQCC", "test": "[…] metabolic labelling, anti-myc immunoprecipitation, TLC of bound nucleotides", "format": "cell-based", "conditions": "HEK293T cells, mock or RINL co-expression, labelled compound"}, "[2]": {"biological_target": "T2, Rab22 (Homo sapiens, UniProt Q9UL26)", "T2 sequence (Q9UL26 1-194)": "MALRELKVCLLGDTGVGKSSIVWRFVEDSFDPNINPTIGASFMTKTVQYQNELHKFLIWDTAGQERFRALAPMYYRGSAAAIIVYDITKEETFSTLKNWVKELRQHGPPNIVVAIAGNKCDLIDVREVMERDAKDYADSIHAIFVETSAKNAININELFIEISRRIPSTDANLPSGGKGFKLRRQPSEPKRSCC", "test": "[…] metabolic labelling, anti-myc immunoprecipitation, TLC of bound nucleotides", "format": "cell-based", "parameters": "gene RAB22A; myc-tagged in HEK293T (cell assay)", "conditions": "HEK293T cells, 4 h 32Pi; mock or GEF co-expression; labelled compound"}, "[3]": {"biological_target": "T3, Rab21 (Homo sapiens, UniProt Q9UL25)", "T3 sequence (Q9UL25 1-225 limits assumed)": "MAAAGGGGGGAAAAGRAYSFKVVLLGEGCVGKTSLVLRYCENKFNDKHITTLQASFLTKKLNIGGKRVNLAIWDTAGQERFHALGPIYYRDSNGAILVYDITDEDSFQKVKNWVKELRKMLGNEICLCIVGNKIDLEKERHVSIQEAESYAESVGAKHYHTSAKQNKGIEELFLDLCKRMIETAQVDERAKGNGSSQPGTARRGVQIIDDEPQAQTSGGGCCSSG", "test": "[…] metabolic labelling, anti-myc immunoprecipitation, TLC of bound nucleotides", "format": "cell-based", "parameters": "myc-tagged in HEK293T (cell assay)", "conditions": "HEK293T cells, 4 h 32Pi; mock or GEF co-expression; labelled compound"}, "[4]": {"biological_target": "T4, Rab5b (Homo sapiens, UniProt P61020)", "T4 construct": "GST fusion from E. coli (in vitro); myc-tagged in HEK293T (cell assay)", "T4 sequence (P61020 1-215)": "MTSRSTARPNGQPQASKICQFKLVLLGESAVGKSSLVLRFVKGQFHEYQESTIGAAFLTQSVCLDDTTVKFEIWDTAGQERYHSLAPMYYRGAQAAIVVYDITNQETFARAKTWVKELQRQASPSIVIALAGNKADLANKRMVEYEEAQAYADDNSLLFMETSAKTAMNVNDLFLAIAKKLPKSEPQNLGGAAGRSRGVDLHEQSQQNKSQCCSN", "test": "[…] metabolic labelling, anti-myc immunoprecipitation, TLC of bound nucleotides", "format": "cell-based", "conditions": "HEK293T cells, 4 h 32Pi; mock or GEF co-expression; labelled compound"}, "[5]": {"biological_target": "T5, Rab7a (Homo sapiens, UniProt P51149)", "T5 construct": "myc-tagged, expressed in HEK293T, immunoprecipitated", "T5 sequence (P51149 2-207)": "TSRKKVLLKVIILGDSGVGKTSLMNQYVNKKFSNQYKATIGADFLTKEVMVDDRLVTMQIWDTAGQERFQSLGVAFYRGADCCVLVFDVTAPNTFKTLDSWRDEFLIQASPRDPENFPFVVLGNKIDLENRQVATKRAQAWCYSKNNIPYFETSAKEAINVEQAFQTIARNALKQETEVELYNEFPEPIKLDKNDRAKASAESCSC", "test": "[…] metabolic labelling, anti-myc immunoprecipitation, TLC of bound nucleotides", "format": "cell-based", "conditions": "HEK293T cells, mock or RINL co-expression, labelled compound"}, "[6]": {"biological_target": "T6, Rab31 (Homo sapiens, UniProt Q13636)", "T6 sequence (Q13636 1-195)": "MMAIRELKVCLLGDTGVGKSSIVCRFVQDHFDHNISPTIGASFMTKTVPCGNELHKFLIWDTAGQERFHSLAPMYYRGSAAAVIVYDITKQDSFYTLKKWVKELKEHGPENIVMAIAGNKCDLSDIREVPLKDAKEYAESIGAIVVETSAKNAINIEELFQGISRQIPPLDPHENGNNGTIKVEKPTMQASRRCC", "test": "[…] metabolic labelling, anti-myc immunoprecipitation, TLC of bound nucleotides", "format": "cell-based", "parameters": "myc-tagged in HEK293T (cell assay)", "conditions": "HEK293T cells, 4 h 32Pi; mock or GEF co-expression; labelled compound"}, "[7]": {"biological_target": "T7, Rab3a (Homo sapiens, UniProt P20336)", "T7 construct": "myc-tagged, expressed in HEK293T, immunoprecipitated", "T7 sequence (P20336 1-220)": "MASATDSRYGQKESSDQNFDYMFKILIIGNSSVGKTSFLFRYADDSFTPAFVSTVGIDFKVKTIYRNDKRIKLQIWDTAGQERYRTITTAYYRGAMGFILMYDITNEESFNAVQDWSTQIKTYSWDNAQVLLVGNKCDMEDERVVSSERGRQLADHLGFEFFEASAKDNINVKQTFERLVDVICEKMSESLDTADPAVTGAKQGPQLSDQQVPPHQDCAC", "test": "[…] metabolic labelling, anti-myc immunoprecipitation, TLC of bound nucleotides", "format": "cell-based", "conditions": "HEK293T cells, mock or RINL co-expression, labelled compound"}, "[8]": {"biological_target": "T6, Rab31", "test": "[…]GTPgammaS filter binding time course", "parameters": "GST fusion from E. coli (in vitro); myc-tagged in HEK293T (cell assay)", "conditions": "1 µM [35S]GTPgammaS, 30 °C; with or without FLAG-RINL or Rabex-5; labelled compound"}, "[9]": {"biological_target": "T3, Rab21", "test": "[…]GTPgammaS filter binding time course", "parameters": "GST fusion from E. coli (in vitro); myc-tagged in HEK293T (cell assay)", "conditions": "1 µM [35S]GTPgammaS, 30 °C; with or without FLAG-RINL or Rabex-5; labelled compound"}, "[10]": {"biological_target": "T2, Rab22", "test": "[…]GTPgammaS filter binding time course", "parameters": "gene RAB22A; GST fusion from E. coli (in vitro); myc-tagged in HEK293T (cell assay)", "conditions": "1 µM [35S]GTPgammaS, 30 °C; with or without FLAG-RINL or Rabex-5; labelled compound"}, "[11]": {"biological_target": "the molecule itself", "test": "not stated; data not shown; tetramers composed of anti-parallel linkages of two parallel dimers"}}}
{"molecule": "Nc1nc2c(ncn2[C@@H]2O[C@H](COP(=O)(O)OP(=O)(O)O)[C@@H](O)[C@H]2O)c(=O)[nH]1", "note": "[GDP]", "values": [{"measurement": "32Pi metabolic labelling, anti-myc immunoprecipitation, TLC of bound nucleotides", "setting": "[1]", "result": "The radioactivity of GTP and GDP was quantified"}, {"measurement": "32Pi metabolic labelling, anti-myc immunoprecipitation, TLC of bound nucleotides", "setting": "[2]", "result": "The radioactivity of GTP and GDP was quantified"}, {"measurement": "32Pi metabolic labelling, anti-myc immunoprecipitation, TLC of bound nucleotides", "setting": "[3]", "result": "The radioactivity of GTP and GDP was quantified"}, {"measurement": "32Pi metabolic labelling, anti-myc immunoprecipitation, TLC of bound nucleotides", "setting": "[4]", "result": "The radioactivity of GTP and GDP was quantified"}, {"measurement": "32Pi metabolic labelling, anti-myc immunoprecipitation, TLC of bound nucleotides", "setting": "[5]", "result": "The radioactivity of GTP and GDP was quantified"}, {"measurement": "32Pi metabolic labelling, anti-myc immunoprecipitation, TLC of bound nucleotides", "setting": "[6]", "result": "The radioactivity of GTP and GDP was quantified"}, {"measurement": "32Pi metabolic labelling, anti-myc immunoprecipitation, TLC of bound nucleotides", "setting": "[7]", "result": "The radioactivity of GTP and GDP was quantified"}]}
{"molecule": "Nc1nc2c(ncn2[C@@H]2O[C@H](COP(=O)(O)OP(=O)(O)OP(=O)(O)O)[C@@H](O)[C@H]2O)c(=O)[nH]1", "note": "[GTP]", "values": [{"measurement": "32Pi metabolic labelling, anti-myc immunoprecipitation, TLC of bound nucleotides", "setting": "[2]", "result": "RINL significantly increased GTP-Rab21, GTP-Rab22, and GTP-Rab31 formation"}, {"measurement": "32Pi metabolic labelling, anti-myc immunoprecipitation, TLC of bound nucleotides", "setting": "[3]", "result": "RINL significantly increased GTP-Rab21, GTP-Rab22, and GTP-Rab31 formation"}, {"measurement": "32Pi metabolic labelling, anti-myc immunoprecipitation, TLC of bound nucleotides", "setting": "[4]", "result": "Rab5b was present in a GTP-bound form in mock-transfected cells"}, {"measurement": "32Pi metabolic labelling, anti-myc immunoprecipitation, TLC of bound nucleotides", "setting": "[6]", "result": "RINL significantly increased GTP-Rab21, GTP-Rab22, and GTP-Rab31 formation"}, {"measurement": "32Pi metabolic labelling, anti-myc immunoprecipitation, TLC of bound nucleotides", "setting": "[7]", "result": "The percentages (%) of each GTP-bound Rab member in the metabolically radiolabeled cells are shown"}]}
{"molecule": "Nc1nc2c(ncn2[C@@H]2O[C@H](COP(=O)(O)OP(=O)(O)OP(O)(O)=S)[C@@H](O)[C@H]2O)c(=O)[nH]1", "note": "[GTPgammaS]", "values": [{"measurement": "[35S]GTPgammaS filter binding time course", "setting": "[8]", "result": "RINL accelerated GTPgammaS binding to Rab22 and Rab31"}, {"measurement": "[35S]GTPgammaS filter binding time course", "setting": "[9]", "result": "Rabex-5 strongly, as opposed to RINL, accelerated GTPgammaS binding to Rab21"}, {"measurement": "[35S]GTPgammaS filter binding time course", "setting": "[10]", "result": "RINL accelerated GTPgammaS binding to Rab22 and Rab31"}]}
{"molecule": "B1", "values": [{"measurement": "stoichiometry N", "setting": "[11]", "result": 4}]}
